Legend:
LOLMU [1] = test: greenhouse test, pre-emergence treatment; format: in vivo, Lolium multiflorum
Excerpt: (§1) The culture containers used were plastic pots containing loamy sand with approximately 3.0% of humus as substrate. The seeds of the test plants were sown separately for each species.
(§2) For the pre-emergence treatment, the active compounds, suspended or emulsified in water, were applied directly after sowing by means of finely distributing nozzles. The containers were irrigated gently to promote germination and growth and subsequently covered with transparent plastic hoods until the plants had rooted. This cover caused uniform germination of the test plants unless this was adversely affected by the active compounds.
(§3) Depending on the species, the plants were kept at 10-25° C. and 20-35° C., respectively. The test period extended over 2 to 4 weeks. During this time, the plants were tended and their response to the individual treatments was evaluated.
(§4) Evaluation was carried out using a scale from 0 to 100. 100 means no emergence of the plants, or complete destruction of at least the above-ground parts, and 0 means no damage or normal course of growth. Good herbicidal activity is given at values of at least 70, and very good herbicidal activity is given at values of at least 85.
(§5) The respective stated components A and B, and if appropriate, C were formulated as a 5% by weight or 10% by weight strength emulsion concentrate or a commercially available formulation of component B was used and, with addition of the amount of solvent system, introduced into the spray liquor used for applying the active compound. In the examples, the solvent used was water.
(§6) The test period extended over 20 or 21 days. During this time, the plants were tended, and their reactions to the treatment with active compound was monitored.
(§7) What was evaluated was the damage by the chemical compositions using a scale of from 0 to 100%, in comparison to the untreated control plants. 0 means no damage, and 100 means complete destruction of the plants.
(§8) In the examples below, using the method of S. R. Colby (1967) “Calculating synergistic and antagonistic responses of herbicide combinations”, Weeds 15, p. 22 ff., the value E, which is expected if the activity of the individual active compounds is only additive, was calculated.
(§9) where X=percent activity using active compound A at an application rate a; Y=percent activity using active compound B at an application rate b; E=expected activity (in %) by A+B at application rates a+b.
(§10) If the value found in experiments is higher than the value E calculated according to Colby, a synergistic effect is present.

PHACA = test: greenhouse test, pre-emergence treatment; format: in vivo, Phalaris canariensis
Excerpt: as §1, §2, §3, §4, §5, §6, §7, §8, §9, §10

ECHCG = test: greenhouse test, pre-emergence treatment; format: in vivo, Echinochloa crus-galli
Excerpt: as §1, §2, §3, §4, §5, §6, §7, §8, §9, §10

ALOMY [2] = test: greenhouse test, pre-emergence treatment; format: in vivo, Alopecurus myosuroides
Excerpt: as §1, §2, §3, §4, §5, §6, §7, §8, §9, §10

BRAPL = test: greenhouse test, pre-emergence treatment; format: in vivo, Brachiaria plantaginea
Excerpt: as §1, §2, §3, §4, §5, §6, §7, §8, §9, §10

DIGSA = test: greenhouse test, pre-emergence treatment; format: in vivo, Digitaria sanguinalis
Excerpt: as §1, §2, §3, §4, §5, §6, §7, §8, §9, §10

LAMPU = test: greenhouse test, pre-emergence treatment; format: in vivo, Lamium purpureum
Excerpt: as §1, §2, §3, §4, §5, §6, §7, §8, §9, §10

SETFA = test: greenhouse test, pre-emergence treatment; format: in vivo, Setaria faberi
Excerpt: as §1, §2, §3, §4, §5, §6, §7, §8, §9, §10

SOLNI = test: greenhouse test, pre-emergence treatment; format: in vivo, Solanum nigrum L.
Excerpt: as §1, §2, §3, §4, §5, §6, §7, §8, §9, §10

APESV = test: greenhouse test, pre-emergence treatment; format: in vivo, Apera spica-venti
Excerpt: as §1, §2, §3, §4, §5, §6, §7, §8, §9, §10

MATIN = test: greenhouse test, pre-emergence treatment; format: in vivo, Matricaria inodora; settings: 1000 g/ha a.s., Use Example 2
Excerpt: as §1, §2, §3, §4, §5, §6, §7, §8, §9, §10

STEME = test: greenhouse test, pre-emergence treatment; format: in vivo, Stellaria media; settings: 1000 g/ha a.s., Use Example 2
Excerpt: as §1, §2, §3, §4, §5, §6, §7, §8, §9, §10

POAAN = test: greenhouse test, pre-emergence treatment; format: in vivo, Poa annua; settings: 25 g/ha a.s., Use Example 7
Excerpt: as §1, §2, §3, §4, §5, §6, §7, §8, §9, §10

ALOMY [3] = test: greenhouse test, post-emergence treatment; format: in vivo, Alopecurus myosuroides; settings: Use Example 17
Experimental: as §1
(§11) For the post-emergence treatment, the test plants were grown to a plant height of from 3 to 15 cm, depending on the plant habit, and only then treated with the active compounds which had been suspended or emulsified in water. To this end, the test plants were either sown directly and grown in the same containers, or they were first grown separately as seedlings and transplanted into the test containers a few days prior to treatment.
as §3, §4, §5, §6, §7, §8, §9, §10

LOLMU [4] = test: greenhouse test, post-emergence treatment; format: in vivo, Lolium multiflorum; settings: Use Example 17
Experimental: as §1, §11, §3, §4, §5, §6, §7, §8, §9, §10

SETVI = test: greenhouse test, post-emergence treatment; format: in vivo, Setaria viridis; settings: Use Example 17
Experimental: as §1, §11, §3, §4, §5, §6, §7, §8, §9, §10

SETLU = test: greenhouse test, pre-emergence treatment; format: in vivo, Setaria glauca; settings: 31.25 g/ha a.s., Use Example 14
Excerpt: as §1, §2, §3, §4, §5, §6, §7, §8, §9, §10

[5] = 31.25 g/ha a.s., Use Example 23
[6] = 31.25 g/ha a.s., Use Example 14

## CN1C(=O)C(Cc2ccccc2)N(C)C(=O)C1=Cc1ccccc1C#N (racemic) [Compound I-1 (Z) (Racemate), 2-[5-benzyl-1,4-dimethyl-3,6-dioxopiperazin-2-ylidenemethyl]benzonitrile]
LOLMU [1]; 63 g/ha a.s., Use Example 21
  Herbicidal action in % after 20 days against LOLMU: 30%
LOLMU [1]; 125 g/ha a.s., Use Example 21
  Herbicidal action in % after 20 days against LOLMU: 50%
PHACA; 125 g/ha a.s., Use Example 20
  Herbicidal action in % after 20 days against PHACA: 65%
PHACA; 250 g/ha a.s., Use Example 20
  Herbicidal action in % after 20 days against PHACA: 90%
ECHCG; 125 g/ha a.s., Use Example 22
  Herbicidal action in % after 20 days against ECHCG: 20%
ECHCG; 125 g/ha a.s., Use Example 23
  Herbicidal action in % after 20 days against ECHCG: 20%
ECHCG; 250 g/ha a.s., Use Example 22
  Herbicidal action in % after 20 days against ECHCG: 70%
ECHCG; 250 g/ha a.s., Use Example 23
  Herbicidal action in % after 20 days against ECHCG: 70%
ALOMY [2]; 63 g/ha a.s., Use Example 21
  Herbicidal action in % after 20 days against ALOMY: 30%
ALOMY [2]; 125 g/ha a.s., Use Example 21
  Herbicidal action in % after 20 days against ALOMY: 75%
BRAPL; 125 g/ha a.s., Use Example 23
  Herbicidal action in % after 20 days against BRAPL: 40%
BRAPL; 250 g/ha a.s., Use Example 19
  Herbicidal action in % after 20 days against BRAPL: 75%
BRAPL; 250 g/ha a.s., Use Example 23
  Herbicidal action in % after 20 days against BRAPL: 75%
DIGSA; 125 g/ha a.s., Use Example 22
  Herbicidal action in % after 20 days against DIGSA: 40%
DIGSA; 125 g/ha a.s., Use Example 23
  Herbicidal action in % after 20 days against DIGSA: 40%
DIGSA; 250 g/ha a.s., Use Example 19
  Herbicidal action in % after 20 days against DIGSA: 65%
DIGSA; 250 g/ha a.s., Use Example 22
  Herbicidal action in % after 20 days against DIGSA: 65%
DIGSA; 250 g/ha a.s., Use Example 23
  Herbicidal action in % after 20 days against DIGSA: 65%
LAMPU; 63 g/ha a.s., Use Example 21
  Herbicidal action in % after 20 days against LAMPU: 0%
LAMPU; 125 g/ha a.s., Use Example 20
  Herbicidal action in % after 20 days against LAMPU: 30%
LAMPU; 125 g/ha a.s., Use Example 21
  Herbicidal action in % after 20 days against LAMPU: 30%
LAMPU; 250 g/ha a.s., Use Example 20
  Herbicidal action in % after 20 days against LAMPU: 80%
SETFA; 125 g/ha a.s., Use Example 22
  Herbicidal action in % after 20 days against SETFA: 75%
SETFA; 250 g/ha a.s., Use Example 19
  Herbicidal action in % after 20 days against SETFA: 85%
SETFA; 250 g/ha a.s., Use Example 22
  Herbicidal action in % after 20 days against SETFA: 85%
SOLNI; 125 g/ha a.s., Use Example 22
  Herbicidal action in % after 20 days against SOLNI: 40%
SOLNI; 125 g/ha a.s., Use Example 23
  Herbicidal action in % after 20 days against SOLNI: 40%
SOLNI; 250 g/ha a.s., Use Example 19
  Herbicidal action in % after 20 days against SOLNI: 65%
SOLNI; 250 g/ha a.s., Use Example 22
  Herbicidal action in % after 20 days against SOLNI: 65%
SOLNI; 250 g/ha a.s., Use Example 23
  Herbicidal action in % after 20 days against SOLNI: 65%
APESV; 63 g/ha a.s., Use Example 21
  Herbicidal action in % after 20 days against APESV: 80%
APESV; 125 g/ha a.s., Use Example 20
  Herbicidal action in % after 20 days against APESV: 90%
APESV; 125 g/ha a.s., Use Example 21
  Herbicidal action in % after 20 days against APESV: 90%
APESV; 250 g/ha a.s., Use Example 20
  Herbicidal action in % after 20 days against APESV: 95%

## CCCN(CCC)C(=O)SCc1ccccc1 [Prosulfocarb, reference compound]
ECHCG; 1000 g/ha a.s., Use Example 2
  Herbicidal action in % after 20 days against ECHCG: 40%
MATIN
  Herbicidal action in % after 20 days against MATIN: 30%
STEME
  Herbicidal action in % after 20 days against STEME: 80%
ALOMY [2]; 1000 g/ha a.s., Use Example 2
  Herbicidal action in % after 20 days against ALOMY: 70%

## O=C(Nc1ccc(F)cc1)c1cccc(Oc2cccc(C(F)(F)F)c2)n1 [Picolinafen, reference compound]
PHACA; 25 g/ha a.s., Use Example 20
  Herbicidal action in % after 20 days against PHACA: 0%
ALOMY [2]; 25 g/ha a.s., Use Example 7
  Herbicidal action in % after 20 days against ALOMY: 0%
POAAN
  Herbicidal action in % after 20 days against POAAN: 0%
LAMPU; 25 g/ha a.s., Use Example 20
  Herbicidal action in % after 20 days against LAMPU: 0%
APESV; 25 g/ha a.s., Use Example 20
  Herbicidal action in % after 20 days against APESV: 60%

## CC(C)c1ccc(NC(=O)N(C)C)cc1 [Isoproturon, reference compound]
PHACA; 375 g/ha a.s., Use Example 4
  Herbicidal action in % after 20 days against PHACA: 55%
PHACA; 750 g/ha a.s., Use Example 4
  Herbicidal action in % after 20 days against PHACA: 75%
ALOMY [2]; 375 g/ha a.s., Use Example 4
  Herbicidal action in % after 20 days against ALOMY: 90%
ALOMY [2]; 750 g/ha a.s., Use Example 4
  Herbicidal action in % after 20 days against ALOMY: 98%

## CCC(CC)Nc1c([N+](=O)[O-])cc(C)c(C)c1[N+](=O)[O-] [Pendimethalin, reference compound]
LOLMU [1]; 250 g/ha a.s., Use Example 10
  Herbicidal action in % after 20 days against LOLMU: 0%
ALOMY [2]; 250 g/ha a.s., Use Example 10
  Herbicidal action in % after 20 days against ALOMY: 30%
ALOMY [3]; 500 g/ha a.s.
  Herbicidal action in % after 20 days against ALOMY: 65%
ALOMY [3]; 1000 g/ha a.s.
  Herbicidal action in % after 20 days against ALOMY: 75%
LOLMU [4]; 500 g/ha a.s.
  Herbicidal action in % after 20 days against LOLMU: 70%
LOLMU [4]; 1000 g/ha a.s.
  Herbicidal action in % after 20 days against LOLMU: 75%
SETVI; 500 g/ha a.s.
  Herbicidal action in % after 20 days against SETVI: 90%
SETVI; 1000 g/ha a.s.
  Herbicidal action in % after 20 days against SETVI: 95%

## COC[C@H](C)N(C(=O)CCl)c1c(C)csc1C [Dimethenamide-P, reference compound]
ECHCG; 16 g/ha a.s., Use Example 23
  Herbicidal action in % after 20 days against ECHCG: 50%
ECHCG; [5]
  Herbicidal action in % after 20 days against ECHCG: 85%
BRAPL; 16 g/ha a.s., Use Example 23
  Herbicidal action in % after 20 days against BRAPL: 40%
BRAPL; [5]
  Herbicidal action in % after 20 days against BRAPL: 50%
DIGSA; 16 g/ha a.s., Use Example 23
  Herbicidal action in % after 20 days against DIGSA: 70%
DIGSA; [6]
  Herbicidal action in % after 20 days against DIGSA: 90%
DIGSA; [5]
  Herbicidal action in % after 20 days against DIGSA: 85%
SETLU
  Herbicidal action in % after 20 days against SETLU: 65%
SETFA; [6]
  Herbicidal action in % after 20 days against SETFA: 95%
SOLNI; 16 g/ha a.s., Use Example 23
  Herbicidal action in % after 20 days against SOLNI: 60%
SOLNI; [5]
  Herbicidal action in % after 20 days against SOLNI: 80%

## CCNc1nc(Cl)nc(NC(C)(C)C)n1 [Terbuthylazine, reference compound]
BRAPL; 250 g/ha a.s., Use Example 5
  Herbicidal action in % after 20 days against BRAPL: 15%
DIGSA; 250 g/ha a.s., Use Example 5
  Herbicidal action in % after 20 days against DIGSA: 35%

From patent US20100190794A1, “Herbicidally Active Composition” (BASF SE, priority 2007, published 2010)
